Source: PMC9166766 (Experimental & Molecular Medicine, 2022)
No end group written: not given here.

What was measured:
HIF-1α = HIF-1α stabilization in Jurkat T cells (western blot); type: cell-based; conditions: DMOG
Description: Supplementary Fig. 4 No hydroxylation or O -GlcNAcylation occurred in the “PPTP” sequence a Jurkat T cells expressing HA-mCherry -CABIN1 peptide w ere tr eated with DMO G in a dose-dependent manner for 12 h. b Jurkat T cells expressing HA-mCherry-CABIN1 peptide were treated with 500 μ M DMOG in a time-depend ent manner. Each cell lysate was immunoprecipitated with HA antibody and CABIN1 peptide-bound CNA was detected by Western blotting. HIF-1α was det ected as a positive control for DMOG treat ment. c HEK293 T cells were transfected with GST-peptides and GST pull-down assay was conducted.
Hydroxyproline and O-linked glycosylation of the peptides were detected b y Western blotting.
(§1) (1 picture or pasted object on this page, not shown here)

[1] = tested on: CABIN1 peptide-CNA interaction; assay: Immunoprecipitation of HA-mCherry-CABIN1 peptide and bound CNA from treated Jurkat T cells; type: cell-based; conditions: for CABIN1 peptide binding to CNA, effect of p38 inhibitor: 10 μM inhibitor, 16 h, n = 6
Description: We lysed the cells in IP150 buffer and immunoprecipitated Flag- and HA-tagged proteins with Anti-FLAG ® M2 Affinity Gel (Sigma–Aldrich) and Pierce™ Anti-HA Agarose (Thermo Fisher Scientific), respectively. […] To quantify the western blot results, we measured the band areas using ImageJ (https://imagej.nih.gov/ij/).
Values shown are the mean ± standard deviation.

[2] = tested on: CABIN1 peptide threonine 9 phosphorylation; assay: Phosphorylation of threonine 9 of the expressed peptide in Jurkat T cells (PXpTP western blot, LC-MS/MS); type: cell-based; conditions: Jurkat; for phosphorylation of the CABIN1 peptide, effect of p38 inhibitor: 10 μM inhibitor, 16 h, n = 6
Description: We lysed the cells in IP150 buffer and immunoprecipitated Flag- and HA-tagged proteins with Anti-FLAG ® M2 Affinity Gel (Sigma–Aldrich) and Pierce™ Anti-HA Agarose (Thermo Fisher Scientific), respectively. The composition of the buffer and the subsequent process was described previously. To quantify the western blot results, we measured the band areas using ImageJ (https://imagej.nih.gov/ij/).
We purified HA-mCherry-tagged CABIN1-L-1-2 peptides expressed in Jurkat T cells by immunoprecipitating 4 mg of lysates with Pierce™ Anti-HA Agarose. We eluted the bead-bound proteins by competition with 1 mg/ml HA peptide. After separation by SDS-PAGE and staining with Coomassie Brilliant Blue, we analyzed the purified proteins by LC-MS/MS (ProteomeTech, Inc., Seoul, Korea).
(§2) RU response units, NC negative control.
The phosphorylated threonine of the immunoprecipitated peptide with HA antibody was detected with [PXpTP] antibody. b In vitro kinase assays using purified GST-tagged CABIN1 peptide and PKC downstream kinases. c In vitro kinase assays using purified GST-tagged peptides and kinases included in the MAPK family. d Immunoprecipitation assays using Flag-MAPKs and HA-CABIN1 in HEK293T cells. e, f In vitro kinase assays using p38α and substituted CABIN1 peptides. g Jurkat T cells expressing HA-mCherry-tagged CABIN1 peptide were treated with 10 μM p38α inhibitors for 16 h. Immunoprecipitation was performed with HA antibody and detected by western blotting. h Phosphorylated threonine and peptide-bound CNA of g were measured using ImageJ, and the ratio of phosphorylation and calcineurin binding to the CABIN1 peptide was calculated (n = 6). […] Statistical differences were determined using one-way ANOVA. *p < 0.05, **p < 0.01, ***p < 0.001, CBB Coomassie Brilliant Blue, NC negative control.

[3] = tested on: CNA (His-tagged calcineurin catalytic subunit); assay: Surface plasmon resonance (Biacore T200)
Description: Using a Biacore T200 (Cytiva), we captured the biotin-labeled peptides on the surface of a Series S Sensor Chip SA (Cytiva). […] Each cycle was performed at 25 °C at a flow rate of 30 μl/min with 120 s of contact and 240 s of dissociation. We analyzed the kinetics of interactions using BIAevaluation 3.2 RC1 (Cytiva).
Biotinylated peptide-bound CNA was detected with His antibody. […] CNA concentrations ranged from 1.25, 2.5, 5, and 10 nM. […] Values shown are the mean ± standard deviation.

[4] = tested on: CNA (calcineurin catalytic subunit); conditions: biotinylated peptides, His-CNA
Description: (§3) GST-tagged peptides and His-tagged CNAα and β2 were expressed in Escherichia coli BL21(DE3)pLysS. When the OD600 reached 0.5, we treated the bacteria with IPTG (0.1 mM overnight at 18 °C or 1 mM for 4 h at 37 °C). We purified the proteins as described previously. We performed a His-pulldown assay with 0.5 ml of IP150 buffer with 0.5 mM EDTA. We mixed His-tagged CNA with GST-tagged peptides and captured it on Ni-NTA agarose beads (Qiagen, Hilden, Germany). We washed the beads three times with binding buffer and analyzed the proteins by western blotting. We pulled down the GST-tagged peptides using Glutathione Sepharose™ 4 Fast Flow (Cytiva, Marlborough, MA, USA) and the biotin-labeled peptides using Streptavidin Agarose Resin (Thermo Fisher Scientific).
as §2

[5] = tested on: CNAβ2 (calcineurin catalytic subunit); assay: Mammalian two-hybrid assay (VP16 AD-CNAβ2 and GAL4 DBD-peptides, pG5-luc) in HEK293T cells; type: cell-based; conditions: for interaction with / binding affinity to CNA (mammalian two-hybrid): CNAβ2, 24 h, repeated three times
Description: (§4) To measure the transcriptional activity of NFAT, we cotransfected Jurkat T cells with GST-tagged peptides and NFAT-luc by electroporation. After 24 h, we pretreated the cells with 0.5 μM FK506 for 1 h and then treated them with 40 nM PMA and 1 μM ionomycin for 8 h. For the mammalian two-hybrid assay, we cotransfected HEK293T cells with GAL4 DBD-tagged CABIN1, VIVIT, chimeric and substituted peptides, VP16 activation domain-tagged CNAβ2, and pG5-luc (luciferase reporter plasmid containing the GAL4-responsive promoter) for 24 h. We lysed the harvested cells with a luciferase assay lysis buffer (17 mM KH2PO4, 183 mM K2HPO4, pH 7.8, 0.2% [v/v] Triton X-100) and sonicated them briefly. We measured luciferase activity for each cell lysate using an Infinite M200 (Tecan, Männedorf, Switzerland). In addition, we confirmed the expression level of the transfected proteins by Western blotting.
A mammalian two-hybrid assay using these peptides was performed (bottom). The compositions of the transfected DNA are described in Supplementary Fig. 1a–c. All experiments were repeated three times and are presented as the mean ± standard deviation. […] SE short exposure, LE long exposure, NC negative control, WT wild-type.
(§5) NC negative control, WT wild-type.

[6] = tested on: CNAβ2 (calcineurin catalytic subunit); assay: In vitro His-pulldown assay of GST-tagged peptides with His-tagged CNA; type: binding; conditions: IP150 buffer with 0.5 mM EDTA
Description: as §3, §5, §2

[7] = tested on: CNAβ2 (calcineurin catalytic subunit); assay: Immunoprecipitation assay of Flag-CNAβ2 and tagged peptides in HEK293T cells; type: cell-based
Description: as §5, §2, §1

[8] = tested on: NFAT transcriptional activity; assay: NFAT-luc luciferase reporter assay in Jurkat T cells; type: cell-based; conditions: GST-tagged CABIN1 peptides, PMA and ionomycin, n = 3, T9V vs T6V
Description: as §4, §2, §1

JNK1 = assay: In vitro kinase assay, JNK1; type: biochemical; conditions: GST-tagged peptide, 1 h, 30 °C, 50 μM ATP
Description: (§6) We used the purified GST-tagged peptides for the in vitro kinase assays with activated recombinant kinases obtained from Proqinase GmbH (Freiburg, Germany). We performed the kinase assays in reaction buffer (50 mM HEPES-NaOH, pH 7.5, 3 mM MgCl2, 3 mM MnCl2, 3 μM sodium orthovanadate, 1 mM dithiothreitol, 50 μM unlabeled ATP, 5 μCi ^32P-γ-ATP) for 1 h at 30 °C. We stopped the reaction by adding 5× sample buffer and separated the proteins using SDS-PAGE. The gel was stained with Coomassie Brilliant Blue, dried, and developed on X-ray film.
(§7) The phosphorylated threonine of the immunoprecipitated peptide with HA antibody was detected with [PXpTP] antibody. b In vitro kinase assays using purified GST-tagged CABIN1 peptide and PKC downstream kinases. c In vitro kinase assays using purified GST-tagged peptides and kinases included in the MAPK family. d Immunoprecipitation assays using Flag-MAPKs and HA-CABIN1 in HEK293T cells. e, f In vitro kinase assays using p38α and substituted CABIN1 peptides. g Jurkat T cells expressing HA-mCherry-tagged CABIN1 peptide were treated with 10 μM p38α inhibitors for 16 h. Immunoprecipitation was performed with HA antibody and detected by western blotting. h Phosphorylated threonine and peptide-bound CNA of g were measured using ImageJ, and the ratio of phosphorylation and calcineurin binding to the CABIN1 peptide was calculated (n = 6). […]

p38α = assay: In vitro kinase assay, p38α; type: biochemical; conditions: GST-tagged peptide, 1 h, 30 °C, 50 μM ATP
Description: as §6, §7

ERK2 = assay: In vitro kinase assay, ERK2; type: biochemical; conditions: GST-tagged peptide, 1 h, 30 °C, 50 μM ATP
Description: as §6, §7

[9] = set-up: method as in PMID 24319282; conditions: ref [17]; cited from earlier work
Description: FK506 and cyclosporin A, respectively cooperating with FKBP12 or cyclophilin, spatially hinder the substrates’ access to the active site of calcineurin, inhibiting its phosphatase activity[30],[31].

[10] = biotinylated peptide on SA chip, CNA 1.25-10 nM, HBS-EP+ pH 7.4, 25 °C, 30 μl/min, mean ± SD

With `COC(=O)CNC(=O)C(=O)OC` [DMOG, dimethyloxalylglycine] the HIF-1α stabilization (HIF-1α) was “stabilized hypoxia-inducible factor-1alpha (HIF-1α)” and the “CABIN1 peptide and CNA interaction, effect of DMOG” value ([1]; DMOG dose-dependent 12 h or 500 μM time-dependent) was “did not affect the CABIN1 peptide and CNA interaction”.
For `Cc1ccccc1C(=O)c1ccc(Nc2ccc(Br)cc2N)cc1Cl` [EO 1428], the “phosphorylation of the CABIN1 peptide, effect of p38 inhibitor” value [2] was “significantly reduced phosphorylation of the CABIN1 peptide” and the “CABIN1 peptide binding to CNA, effect of p38 inhibitor” value [1] was “decreasing its binding affinity for CNA”.
For `CCCCCCCCCCCCCC(=O)O[C@@H]1[C@@H](C)[C@@]2(O)[C@@H](C=C(CO)C[C@]3(O)C(=O)C(C)=C[C@@H]23)[C@@H]2C(C)(C)[C@]12OC(C)=O` [PMA, phorbol myristate acetate], the “CABIN1 peptide phosphorylation after PMA” value ([2]; 40 nM PMA, two hours after treatment) was “CABIN1 peptide phosphorylation increased”.
With `CCc1nc(-c2cccc(C)c2)c(-c2ccnc(NC(=O)c3ccccc3)c2)s1` [TAK 715] the “phosphorylation of the CABIN1 peptide, effect of p38 inhibitor” value [2] was “significantly reduced phosphorylation of the CABIN1 peptide” and the “CABIN1 peptide binding to CNA, effect of p38 inhibitor” value [1] was “decreasing its binding affinity for CNA”.
With “Biotin-AAAMAGFPPEITVTPP{pTHR}P [p-CABIN1-L-1]” the “increase in binding affinity by phosphorylation of the 9th threonine” value ([3]; SPR, phosphorylated vs unphosphorylated CABIN1 peptide) was “increased the binding affinity by approximately threefold”, the “Ka (association rate)” value [3, 10] was 3393.3±380.8 1/MS and the “Kd (dissociation rate)” value [3, 10] was 5.79e-4±3.2e-5 1/S. For the same compound, the “affinity for CNA (streptavidin pulldown)” value [4] was “dramatically increased the affinity for CNA”.
For “CABIN1-L-1-1: CABIN1-L-1 with N-terminal residues removed (PPEITVTPPTP; also: GAL4 DNA-binding domain tag)”, the “interaction with / binding affinity to CNA (mammalian two-hybrid)” value (shortened to “interaction with / binding affinity”) [5] was “still bound to CNA”.
With “CABIN1-L-1-3: CABIN1-L-1 with N-terminal residues removed (EITVTPPTP; also: GAL4 DNA-binding domain tag)” the “interaction with / binding affinity” value [5] was “lost its binding affinity”.
In the case of “CABIN1-L-2: CABIN1-L with C-terminal residues removed (FPPEITVTPPT; also: GAL4 DNA-binding domain tag)”, the “interaction with / binding affinity” value [5] is reported as “completely lost its binding affinity to CNA”.
For “CABIN1-L: first 13-amino acid segment containing the PxIxIT motif, from CABIN1-14 (FPPEITVTPPTPT; also: GAL4 DNA-binding domain tag)”, the “interaction with / binding affinity” value [5] was “significantly stronger affinity for CNA than CABIN1-14”.
In the case of “T6V: CABIN1 peptide with threonine 6 substituted with valine (PEITVVPPTP; also: GST and HA tags, end not given here)”, the “interaction with CNA in vitro (His-pulldown)” value [6] is reported as “abolished the interaction” and the “interaction with CNA by immunoprecipitation” value [7] is reported as “abolished the interaction”.
In the case of “T9V: CABIN1 peptide with threonine 9 substituted with valine (PEITVTPPVP; not fully specified)”, the “interaction with CNA in vitro (His-pulldown)” value [6] is reported as “not in vitro”, the “NFAT transcriptional activity restored by substitution” value [8] is reported as “restored the CABIN1-suppressed transcriptional activity of NFAT more efficiently than the T6V substitution” and the “interaction with CNA by immunoprecipitation” value [7] is reported as “abolished the interaction in the cellular experiment”.
In the case of “VIVIT PPTP: chimeric peptide with C-terminal sequence of VIVIT swapped for PPTP of CABIN1 (PVIVITPPTP; also: GAL4 DNA-binding domain tag)”, the “phosphorylation by JNK1” value (JNK1) is reported as “phosphorylated”, the “phosphorylation by p38α” value (p38α) is reported as “phosphorylated” and the “phosphorylation by ERK2” value (ERK2) is reported as “phosphorylated”. The “fold enhancement of interaction with CNA, VIVIT PPTP vs. L-1-2 WT (effect of N-terminal PVIVIT)” value ([5]; CNAβ2, VIVIT PPTP vs. L-1-2 WT) was 1.93 fold and the “fold enhancement of interaction with CNA, VIVIT PPTP vs. VIVIT 10-mer (effect of C-terminal PPTP)” value ([5]; CNAβ2, VIVIT PPTP vs. VIVIT 10-mer) was 4.76 fold.
In the case of cyclosporin A, the side effects [9] is listed as “nephrotoxicity, fibrogenesis, neurotoxicity, and diabetes”.
